Assay results taken from US20060293259A1, “Compositions and methods of use of derivatized flavanols” (Mars, Incorporated, priority 2005, published 2006).

Key:
[1] = test system: human umbilical vein endothelial cell (HUVEC); test: NO production (NOx in culture medium) by HUVEC; assay type: cell-based; conditions: for effect on NO production, chronic effect test: 5 subsequent doses, each for 24 hours; for effect on NO production, acute effect test: single dose, 2 and 24 hours, 100 nM, and 10 μM
Experimental: Alkylated compounds, obtained as described in Example 1, were investigated for their effect on nitric oxide (NO) production and vasorelaxation using serum-free human umbilical vein endothelial cell (HUVEC) culture system in vitro. NO production by endothelial cells and relaxation of pre-constricted aortic rings are two main markers for evaluating cardiovascular effects of test compounds.
HUVECs obtained from a single donor were cultured in serum free, low protein (0.5 g/l), antibiotic-free cell culture medium supplemented with essential growth factors, nutrients and minerals. […] The cell culture medium was substituted with apo-transferrin, superoxide dismutase, and catalase to exclude secondary effects of test compounds involving their auto-oxidation mediated hydrogen peroxide formation.
(§1) Test compounds were evaluated with respect to their potential to acutely (2 hours) and chronically (5 doses given in a 24 h period) modulate NO production. Positive controls (acetylcholine and/or histamine) and negative control L-NNMA (NO synthase inhibitor) were included in all experiments. Cell counts and total protein were used to assess intra-assay variation. Potential toxic effects of tested compounds were also monitored (MTT reduction was measured).
NO production was evaluated by measuring the total amount of all major nitric oxide end products (NOx, including nitrate, nitrite, nitrosothiols) present in the cell culture medium. […] The amount of NO released from the culture medium was subsequently evaluated by measuring the chemiluminescence emitted during the stoichiometrical reaction between ozone and NO using NO Analyzer (Sievers Instruments, Inc. Boulder, Colo.).
The data presented herein were obtained from three experiments and were expressed as the concentration of NO present (in μmol/l) (as NOx) in the cell culture medium+/−standard deviation (SD). The data were corrected for the NOx intrinsically present in the fully supplemented cell culture medium and normalized with respect to the volume of media from which the sample was drawn. Data were analyzed using Student's t-test with a 95% level of confidence. P values equal to or less than […] were defined as statistically significant.
(§2) For the acute effect test, HUVECs were incubated with a single dose of 4′-O-ethyl (−) epicatechin, 4′-O-methyl (−) catechin, 3′-O-methyl (−) catechin which may be prepared as described in Ex. 1 using (−) catechin as a starting material, for 2 and 24 hours at concentrations of 100 nM, […], and 10 μM at 37 C and 5% CO2.
For the chronic effect test, HUVECs were incubated with 5 subsequent doses of test compounds, each for 24 hours. After each 24 hour treatment, culture medium was replaced.

[2] = test system: human umbilical vein endothelial cell (HUVEC); test: MTT assay for toxic effects in HUVEC; assay type: cell-based; conditions: acute effect test, 100 nM, and 10 μM
Experimental: as §1, §2

platelets in whole blood = test: Collagen-induced platelet aggregation in whole blood (platelet counting); assay type: cell-based, human; conditions: aspirin 100 μM; for inhibition of collagen-induced platelet aggregation: first experiment (FIG. 1), collagen 0.125, 0.25, 0.5 μg/ml, 4 and 10 min, test flavanols 0.3 mM, mean of n=9; for inhibition of collagen induced aggregation: second experiment (FIG. 2), collagen 0.125-0.5 μg/ml, 4 min, flavanols 0.3 mM, n=9
Experimental: (§3) Platelet aggregation was measured using a platelet counting technique, and formation of platelet/monocyte conjugates (P/M) and platelet/neutrophil conjugates (P/N) by flow cytometry. In later experiments the activation state of platelets associated with leukocytes (CD62P) was also measured and also the activation state of the leukocytes themselves (CD11b).
Blood samples were studied using the Multi-Sample Agitator (MSA) produced by the Medical Engineering Unit (University of Nottingham). The MSA is used to maintain blood samples at 37° C. and to agitate small samples of blood at a stir speed of 1,000 rpm as required.
(§4) Blood was obtained from healthy volunteers, who denied taking any aspirin or non-steroidal anti-inflammatory drugs (NSAID) in the previous 10 days. This blood was dispensed into graduated polystyrene tubes that contained hirudin (final concentration 50 μg/ml) and a small volume of the flavanol under investigation or ethanol as control. The final concentration of ethanol in the blood was always 0.3%. In some experiments, aspirin (ASA) or saline as control was also included in the tube. The tubes were then capped and inverted three times to ensure adequate mixing then placed in the MSA at 37° C. for 30 min before the experiments were performed, during which time the blood was left undisturbed. A further sample of blood was taken into a commercially prepared vacutainer tube that contained K2EDTA as anticoagulant.
Following a 30 min pre-incubation period, aliquots of blood (480 μl) were dispensed into small polystyrene tubes each containing a stir bar and stirred for 2 min in the MSA. After 2 min a solution (20 μl) of agonist or vehicle control were added to the tubes. These were then stirred in the MSA for up to 10 min at which time the platelet aggregates were fixed by mixing a small sub sample with fixative solution in a 1:2 ratio (v/v). The platelet count in the fixed samples was determined using the UltraFlo-100 Whole Blood Platelet Counter. Platelet aggregation was calculated as the percentage loss of single platelets with reference to the platelet count of the EDTA sample.
(§5) Blood was obtained from three different volunteers and the platelet aggregation and platelet/leukocyte conjugate formation was measured in response to collagen (0, 0.125, 0.25 and 0.5 μg/ml). In this experiment the highest collagen concentration used previously (1 μg/ml) was replaced with a lower concentration of collagen (0.125 μg/ml) to optimise the inhibition brought about by the different flavanols. In these experiments (+) catechin (Sigma) was used at 1 mM, aspirin (100 μM) and the test flavanols at 0.3 mM with the exception of EP−(0.1 mM) and 4 mCAT (0.05 mM). Aggregation was measured at 4 and 10 min following agonist addition and platelet/leukocyte conjugate formation only at 10 min.
The absolute response of the blood from the different volunteers to collagen varied. This meant that the relative inhibitory effects of a flavanol was dependent on the volunteer's responsiveness to the particular collagen concentration used. For this reason it was decided that an appropriate means of analysing the results, for comparative purposes, would be to calculate the mean values for each flavanol irrespective of the collagen concentration used. (Because, for each of the three blood samples three concentrations of collagen were used, the results are each the means (±sem) of nine individual values).
Blood was obtained from three different volunteers and the platelet aggregation (4 min) and platelet/leukocyte conjugate formation (10 min) was measured in response to collagen (0, 0.125, 0.25 and 0.5 μg/ml). At the same time the activation of platelets and leukocytes in the conjugates were measured by incubation with CD62P and CD11b antibodies. In these experiments aspirin was used at a concentration of 100 μM and derivatized flavanols and procyanidins at 0.3 mM with the exception of EP-(0.1 mM) and 4mCAT (0.05 mM). […]

[3] = test system: platelet/monocyte conjugates; test: Platelet/monocyte conjugate (P/M) formation in whole blood by flow cytometry; assay type: cell-based, human; conditions: collagen 0.125-0.5 μg/ml, 10 min, aspirin 100 μM; for inhibition of platelet/monocyte conjugation (P/M): first experiment (FIG. 1), test flavanols 0.3 mM; for inhibition of P/M: second experiment (FIG. 2), flavanols 0.3 mM
Experimental: as §3
(§6) Flow cytometry was carried out using commercially available fluorescent labelled antibodies on a Facscan (Becton Dickinson, UK) equipped with a 5 W laser operating at 15 mW power and a wavelength of 488 nm or an LSRII flow cytometer (Becton Dickinson, UK) equipped with an additional red Trigon laser operating at a wavelength of 633 nm.
as §4
(§7) Platelet-leukocyte conjugate formation was measured in the same stirred samples used to measure platelet aggregation. Sub samples were taken 4 min or 10 min following the addition of agonist and transferred into the appropriate antibody or antibody mixture. These were then incubated in the dark at room temperature for not less than 20 min. Following red cell lysis and a washing procedure the cell suspensions were applied to either the FACScan or the LSRII flow cytometer. Leukocytes were identified by logical gating from dot plots of forward scatter (cell size) and side scatter (cell granularity) profiles acquired with linear amplification. Monocytes were identified by their forward scatter-side scatter profile and CD14 (PE) positivity, while neutrophils were identified in the same way but were negative for CD14 expression. The “pan” leukocyte marker, CD45 (PerCP) was also used to identify the leukocyte population. Fluorescence parameters were acquired with logarithmic amplification. Platelet monocyte (P/M) and platelet neutrophil (P/N) conjugates were quantified as median CD42a (FITC) fluorescence of the monocyte (P/M mf) or neutrophil population (P/N mf). Leukocyte activation was measured by CD11b (AlexaFluor647) expression (CD11b-M for monocytes and CD11b-N for neutrophils). Platelet activation (P-selectin expression) was measured by CD62P (PE) positivity of the platelets associated with leukocytes as (CD62P-M on P/M and CD62P-N on P/N).
The FACScan was used to measure the fluorescent probes in experiments where three colors were used together, but the LSRII was needed in order to study four colors. The LSRII is a more sensitive machine and produces higher fluorescence values (mf) than the FACScan. […]
Blood was obtained from three different volunteers and the platelet aggregation and platelet/leukocyte conjugate formation was measured in response to collagen (0, 0.125, 0.25 and 0.5 μg/ml). […]

[4] = test system: platelet/neutrophil conjugates; test: Platelet/neutrophil conjugate (P/N) formation in whole blood by flow cytometry; assay type: cell-based, human; conditions: collagen 0.125-0.5 μg/ml, 10 min, aspirin 100 μM; for inhibition of platelet/neutrophil conjugate formation (P/N): first experiment (FIG. 1), test flavanols 0.3 mM; for inhibition of P/N: second experiment (FIG. 2), flavanols 0.3 mM
Experimental: as §3, §6, §4, §7
The FACScan was used to measure the fluorescent probes in experiments where three colors were used together, but the LSRII was needed in order to study four colors. The LSRII is a more sensitive machine and produces higher fluorescence values (mf) than the FACScan. Results obtained on the FACScan cannot be directly compared with the results obtained on the LSRII.
as §5, with “Aggregation was measured at 4 and 10 min following agonist addition and platelet/leukocyte conjugate formation only at 10 min.” left out

[5] = test system: CD62P on platelets associated with monocytes and neutrophils; test: Platelet activation (CD62P, P-selectin) on platelets associated with leukocytes; assay type: cell-based, human; conditions: FIG. 2; collagen 0.125-0.5 μg/ml; 10 min; flavanols 0.3 mM, aspirin 100 μM
Experimental: as §3, §6
Blood was obtained from healthy volunteers, who denied taking any aspirin or non-steroidal anti-inflammatory drugs (NSAID) in the previous 10 days. This blood was dispensed into graduated polystyrene tubes that contained hirudin (final concentration 50 μg/ml) and a small volume of the flavanol under investigation or ethanol as control. […]
(§8) Platelet-leukocyte conjugate formation was measured in the same stirred samples used to measure platelet aggregation. […] Fluorescence parameters were acquired with logarithmic amplification. Platelet monocyte (P/M) and platelet neutrophil (P/N) conjugates were quantified as median CD42a (FITC) fluorescence of the monocyte (P/M mf) or neutrophil population (P/N mf). Leukocyte activation was measured by CD11b (AlexaFluor647) expression (CD11b-M for monocytes and CD11b-N for neutrophils). Platelet activation (P-selectin expression) was measured by CD62P (PE) positivity of the platelets associated with leukocytes as (CD62P-M on P/M and CD62P-N on P/N).
From this point on it was decided to include measures of the extent of the activation of both platelets and leukocytes in the conjugates that formed following addition of collagen to blood. P-selectin (CD62P) was measured on the platelets associated with leukocytes in the conjugates that formed. Leukocyte activation was measured as the amount of CD11b that was expressed. […]

[6] = test system: CD11b on monocytes and neutrophils; test: Leukocyte activation (CD11b expression) on monocytes and neutrophils; assay type: cell-based, human; conditions: FIG. 2; collagen 0.125-0.5 μg/ml; 10 min; flavanols 0.3 mM, aspirin 100 μM
Experimental: as §3
as §6, with “nm. […]” for “nm.”
as §8, with “P/N). […]” for “P/N).”

## 3′-O-methyl (−) catechin
[1]
  effect on NO production, chronic effect test: no statistically significant effect
  effect on NO production, acute effect test: no statistically significant effect
[2]
  toxic effects (MTT assay): did not have toxic effects

## COc1cc(C2Oc3cc(O)cc(O)c3CC2O)ccc1O (stereo not shown) [3mCAT, 3′OMe catechin]
Platelets in whole blood
  inhibition of collagen-induced platelet aggregation: significant effect
  inhibition of collagen induced aggregation: among the most effective
[3]
  inhibition of platelet/monocyte conjugation (P/M): significant effect
  inhibition of P/M: significant effect
[4]
  inhibition of platelet/neutrophil conjugate formation (P/N): among the most effective
  inhibition of P/N: most effective
[5]
  inhibition of platelet activation (CD62P) on monocytes and neutrophils: best inhibited

## COc1ccc(C2Oc3cc(O)cc(O)c3CC2O)cc1O (stereo not shown) [4mEPCAT, 4′OMe epicatechin]
Platelets in whole blood
  inhibition of collagen-induced platelet aggregation: significant effect
  inhibition of collagen induced aggregation: among the most effective
[3]
  inhibition of platelet/monocyte conjugation (P/M): significant effect
  inhibition of P/M: significant effect
[4]
  inhibition of platelet/neutrophil conjugate formation (P/N): among the most effective
  inhibition of P/N: most effective
[5]
  inhibition of platelet activation (CD62P) on monocytes and neutrophils: best inhibited
[6]
  inhibition of leukocyte activation (CD11b on monocytes and neutrophils): among the most effective

## CCOc1ccc([C@H]2Oc3cc(O)cc(O)c3C[C@H]2O)cc1O [4′-O-ethyl (−) epicatechin]
[1]; 10 μM concentration, p=0.004
  effect on NO production, chronic effect test: statistically significant increase
[1]
  effect on NO production, acute effect test: no statistically significant effect
[2]
  toxic effects (MTT assay): did not have toxic effects

## COc1ccc([C@H]2Oc3cc(O)cc(O)c3C[C@@H]2O)cc1O [4′-O-methyl (−) catechin]
[1]
  effect on NO production, chronic effect test: no statistically significant effect
  effect on NO production, acute effect test: no statistically significant effect
[2]
  toxic effects (MTT assay): did not have toxic effects

## CC(=O)Oc1ccccc1C(=O)O [ASA, acetyl salicylic acid, reference compound]
Platelets in whole blood
  inhibition of collagen-induced platelet aggregation: effectively inhibited
  inhibition of collagen induced aggregation: expected effects
[3]
  inhibition of platelet/monocyte conjugation (P/M): effectively inhibited
[4]
  inhibition of platelet/neutrophil conjugate formation (P/N): effectively inhibited
  inhibition of P/N: expected effects
[5]
  inhibition of platelet activation (CD62P) on monocytes and neutrophils: expected effects
[6]
  inhibition of leukocyte activation (CD11b on monocytes and neutrophils): no effect
